Laboratory results published in publication PMC6399351, “Cationic Intrinsically Disordered Antimicrobial Peptides (CIDAMPs) Represent a New Paradigm of Innate Defense with a Potential for Novel Anti-Infectives” (Scientific Reports, 2019).
Like-named read-outs stand apart in the source and are kept apart here. Square brackets hold non-standard residues; d marks the D form. Ends that are not written are not given here. Peptide text beside a SMILES is read from it.

Columns and labels:
[1] = system: P. aeruginosa ATCC 10145; details: CFU assay, 10 mM NaP
[2] = system: S. aureus ATCC 6538; details: CFU assay, 10 mM NaP, pH 5.5, 0.25% glucose

| Molecule | LD90 ([1]; pH 5.5, 0.25% glucose) | LD100 ([1]; pH 5.5, 0.25% glucose) | LD100 ([1]; pH 5.5, 1% TSB) | LD90 ([1]; pH 5.5, 1% TSB) | further results |
| --- | --- | --- | --- | --- | --- |
| CC(C)C[C@@H](NC(=O)CNC(=O)[C@@H](CO)NC(=O)CNC(=O)[C@@H](Cc1c[nH]cn1)NC(=O)[C@@H](CCCNC(=N)N)NC(=O)CN)C(=O)NCC(=O)N[C@H](Cc1c[nH]cn1)C(=O)N[C@H](CO)C(=O)N[C@H](CO)C(=O)N[C@H](CO)C(=O)N[C@H](Cc1c[nH]cn1)C(=O)NCC(=O)N[C@H](CCC(N)=O)C(=O)N[C@H](Cc1c[nH]cn1)C(=O)NCC(=O)N[C@H](CO)C(=O)NCC(=O)N[C@H](CO)C(=O)NCC(=O)N[C@H](CCCNC(=N)N)C(=O)O [(D)HR 1-18] (H-G[dR][dH]G[dS]G[dL]G[dH][dS][dS][dS][dH]G[dQ][dH]G[dS]G[dS]G[dR]-OH; N-terminus and C-terminus assumed) | 0.038 µg/mL | 0.3 µg/mL |  |  |  |
| N=C(N)NCCC[C@H](NC(=O)[C@H](CC(=O)O)NC(=O)[C@H](CS)NC(=O)[C@H](CO)NC(=O)[C@H](CC(N)=O)NC(=O)[C@H](CO)NC(=O)[C@H](CCCNC(=N)N)NC(=O)[C@H](CCC(N)=O)NC(=O)[C@H](CCCNC(=N)N)NC(=O)[C@H](CCCNC(=N)N)NC(=O)[C@H](CS)NC(=O)[C@H](CCC(N)=O)NC(=O)[C@H](Cc1c[nH]cn1)NC(=O)[C@H](CO)NC(=O)[C@H](CCCNC(=N)N)NC(=O)[C@H](Cc1ccccc1)NC(=O)[C@H](Cc1c[nH]cn1)NC(=O)[C@H](CCCNC(=N)N)NC(=O)[C@H](Cc1c[nH]cn1)NC(=O)[C@H](Cc1c[nH]cn1)NC(=O)[C@@H](N)CO)C(=O)O [LCE-3C55-75] (H-SHHRHFRSHQCRRQRSNSCDR-OH; N-terminus and C-terminus assumed) |  |  |  |  | LD90 [2]: 0.59 µg/mL; LD100 [2]: > 150 µg/mL |
| GGHGSGLGHSSSHGQHGSGSGRSSSRGPY [HR 1-17R1-G] | 0.038 µg/mL | 0.3 µg/mL |  |  |  |
| GRGGSGLGGSSSGGQGGSGSGRSSSRGPY [HR 1-174H-4G] | 75 µg/mL | > 300 µg/mL |  |  |  |
| GRHGGGGGHGGGHGGHGGGGGR [HR 1-18,L-G/Q-G/6S-6G] |  | 0.15 µg/mL |  |  |  |
| GRHGSGGGHSSSHGGHGSGSGR [HR 1-18,L-G/Q-G] |  | 0.15 µg/mL |  |  |  |
| GRHGSGLGHSSSH [HR 1-37] | 9.38 µg/mL | > 300 µg/mL |  |  |  |
| GRHGSGLGHSSSHGQH [HR 1-25] | 0.3 µg/mL | 4.7 µg/mL |  |  |  |
| GRHGSGLGHSSSHGQHGSGSGGSSSRGPY [HR 1-17R2-G] | 0.038 µg/mL | 0.15 µg/mL |  |  |  |
| GRHGSGLGHSSSHGQHGSGSGRSSSGGPY [HR 1-17R3-G] | 0.038 µg/mL | 0.15 to 0.3 µg/mL |  |  |  |
| GRHGSGSGHSSSHGQHGSGSGR [HRNR2186-2207] |  | 4.7 to 9.37 µg/mL |  |  |  |
| GRHGSGSGQSSSYGPYGSGSGWSSSRGPY [HRNR1952-1980] |  |  | > 300 µg/mL |  |  |
| GRHGSGSGQSSSYGPYRSGSGWSSSRGPY [HRNR1013-1041] |  |  | > 300 µg/mL |  |  |
| GRHGSGSGQSSSYSPYGSGSGWSSSR [HRNR2422-2447] |  |  | > 300 µg/mL |  |  |
| GRHGSGSGQSSSYSPYGSGSGWSSSRGPY [HRNR2422-2450] |  |  | > 300 µg/mL | 2.35 µg/mL |  |
| GSGSRQSLSYGRHGSGSGR [HR 2-4L] |  |  | > 300 µg/mL | 75 µg/mL |  |
| GSGSRQSPSHGRHGSGSGR [HR 2-4H] |  |  | > 300 µg/mL | 75 µg/mL |  |
| GSGSRQSPSRGRHGSGSGR [HR 2-4R] |  |  | > 300 µg/mL |  |  |
| GSGSRQSPSY [HR 2-2] |  |  | > 300 µg/mL | > 300 µg/mL |  |
| GSGSRQSPSYGR [HR 2-8] |  |  | > 300 µg/mL | 37.5 µg/mL |  |
| GSGSRQSPSYGRHGSGSGR [HR 2-4] |  |  | > 300 µg/mL | > 300 µg/mL |  |

| Molecule | LD90 ([1]; pH 5.5, 0.25% glucose) | LD100 ([1]; pH 5.5, 0.25% glucose) | LD100 ([1]; pH 5.5, 1% TSB) | LD90 ([1]; pH 5.5, 1% TSB) | further results |
| --- | --- | --- | --- | --- | --- |
| GSGSRQSPSYGRHGSGSGRSSSSGQH [HR 2-11] |  |  | > 300 µg/mL | 37.5 µg/mL |  |
| GSGSRQSPSYGRQGSGSGR [HR 2-4Q] |  |  | > 300 µg/mL | > 300 µg/mL |  |
| GSGSRQSSGHGRQGSGSGQ [HR 1-16] |  |  | > 300 µg/mL | > 300 µg/mL |  |
| GSGSRQSSSYGRHGSGSGR [HR 2-4S] |  |  | > 300 µg/mL | 150 µg/mL |  |
| GSRQSPSYGRHGSGSGR [HR 2-12] |  |  | > 300 µg/mL | > 300 µg/mL |  |
| GSRTAGRRGSGH [FLG-22094-2105] |  | > 300 µg/mL |  |  |  |
| HAHSGHGQSTQR [FLG-22082-2093] | 0.15 µg/mL | 2.35 µg/mL |  |  |  |
| HAHSGHGQSTQRGSR [FLG-22082-2096] | 0.15 µg/mL | 1.18 µg/mL |  |  |  |
| HAHSGHGQSTQRGSRTAGRRGSGH [FLG-22082-2105] | < 0.038 µg/mL | 0.075 µg/mL |  |  |  |
| HAHYGYGQSTQRGSRTTGRRGSGH [FLG-22232-2255] | 0.075 µg/mL | 0.59 µg/mL |  |  |  |
| HGQSTQRGSRTAGRRGSGH [FLG-22087-2105] | 0.075 µg/mL | 1.18 µg/mL |  |  |  |
| HGSGLGHSSSHGQHGSGSGR [HR 1-8] | 4.7 µg/mL | > 300 µg/mL | > 300 µg/mL |  |  |
| HGSGSGR [HR 2-9] |  |  | > 300 µg/mL | > 300 µg/mL |  |
| HGSRSGQSSRGERHGSSSGSSSH [HR 1-11] | 0.075 µg/mL |  |  |  |  |
| HGSSSGSSSHYGQHGSGSR [HR 1-4] |  |  | > 300 µg/mL | 150 µg/mL |  |
| HSQRGSGSRQSPSYGRH [HR 2-16] |  | 37.5 µg/mL |  |  |  |
| HSSSHGQHGSGSGR [HR 1-38] |  | > 300 µg/mL |  |  |  |
| HTHSGHAHGQAGSQHGESGSSVHER [FLG-22044-2068] | 0.038 µg/mL | 0.3 µg/mL |  |  |  |
| HTHSGHTHGQAGSHYPESGSSVHER [FLG-21969-1993] | 0.038 µg/mL | 0.3 µg/mL |  |  |  |
| HTHSGHTHGQARSQHGESESIVHER [FLG-21742-1766] | 0.038 µg/mL | 0.15 µg/mL |  |  |  |
| HTHSGHTHGQSGSQHGESESIIHDR [FLG-21515-1539] | 0.075 µg/mL | 0.59 µg/mL |  |  |  |

| Molecule | LD90 ([1]; pH 5.5, 0.25% glucose) | LD100 ([1]; pH 5.5, 0.25% glucose) | LD100 ([1]; pH 5.5, 1% TSB) | LD90 ([1]; pH 5.5, 1% TSB) | further results |
| --- | --- | --- | --- | --- | --- |
| HTHSGHTHSQARSQHGESESTVHKR [FLG-21894-1918] | 0.038 µg/mL | 0.3 µg/mL |  |  |  |
| LGHSSSHGQHGSGSGRSSSRGPYESRLGH [HR 1-36] | 0.15 µg/mL | 2.35 µg/mL |  |  |  |
| QGSGSGQSPGHSQRGSGSRQSPSY [HR 2-1] |  |  | > 300 µg/mL | > 300 µg/mL |  |
| QGSGSGQSPSR [HR 1-6] |  |  | > 300 µg/mL | > 300 µg/mL |  |
| QGSGSGQSPSRGR [HR 1-7] |  |  | > 300 µg/mL | > 300 µg/mL |  |
| QSPSY [HR 2-3] |  |  | > 300 µg/mL | > 300 µg/mL |  |
| QSPSYGR [HR 2-6] |  |  | > 300 µg/mL | > 300 µg/mL |  |
| QSPSYGRHGSGSGR [HR 2-5] |  |  | > 300 µg/mL | > 300 µg/mL |  |
| QSSGHGR [HR 1-5] |  |  | > 300 µg/mL | > 300 µg/mL |  |
| RGSGSGHQGHSSSHGLGSGHRG [rev-HR 1-18] | < 0.019 µg/mL | 0.3 µg/mL |  |  |  |
| RQSPSYGRHGSGSGR [HR 2-14] |  |  | > 300 µg/mL | 300 µg/mL |  |
| SGQSSR [HR 1-2] |  |  | > 300 µg/mL | > 300 µg/mL |  |
| SGQSSRGER [HR 1-3] |  |  | > 300 µg/mL | > 300 µg/mL |  |
| SLSSGHGSGHGHQRGGHRSGSG [scr-HR 1-18] | < 0.019 µg/mL | 0.15 µg/mL |  |  |  |
| SQHGSGSGHSSGYGQHGSR [HR 1-1] |  |  | > 300 µg/mL | > 300 µg/mL |  |
| SRQSPSYGRHGSGR [HR 2-15] |  |  | > 300 µg/mL | 75 µg/mL |  |
| SRQSPSYGRHGSGSGR [HR 2-13] |  |  | > 300 µg/mL | > 300 µg/mL |  |
| SSSRGPY [HR 1-10] |  |  | > 300 µg/mL | > 300 µg/mL |  |
| SSSSR [HR 1-9] |  |  | > 300 µg/mL |  |  |
| TAGRRGSGH [FLG-22097-2105] | > 300 µg/mL | > 300 µg/mL |  |  |  |
| THEHEQSHQRRDRQTHEDKQNRQR [RPTN747-770] | 0.3 µg/mL | 150 µg/mL |  |  |  |
